Consider one compound from US9204640B2, “2-acyloxy-pyrrolin-4-ones” (BAYER INTELLECTUAL PROPERTY GMBH, priority 2011, dated 2015).

Assay type in all cases: in vivo
In assay [1] the test system is Myzus persicae. Put plainly: Myzus persicae test (MYZUPE Tau), leaf dipping. To be noted: 20 ppm, 6dat. Here is the method: Myzus Persicae Test (MYZUPE Tau) To produce a suitable preparation of active compound, 1 part by weight of active compound is mixed with the stated amount of solvent and emulsifier, and the concentrate is diluted with emulsifier-containing water to the desired concentration. Cabbage leaves (Brassica oleracea) which are heavily infested by the green peach aphid (Myzus persicae) are treated by dipping into the active compound preparation of the desired concentration. After the desired period of time, the kill in % is determined. 100% means that all of the aphids have been killed; 0% means that none of the aphids have been killed.

For assay [2], the system named is Myzus persicae. Put plainly: Myzus test (MYZUPE spray treatment). To be noted: application rate 500 g/ha, after 5 days, Chinese cabbage leaf discs. Put shortly: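 Chinese cabbage leaf discs carrying all stages of green peach aphid sprayed with compound diluted in emulsifier-containing water to the desired concentration. Mortality scored as % after 5 days, where 100% means all aphids dead and 0% none.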

Assay [3] has as its system Tetranychus urticae. Briefly: Tetranychus test (TETRUR spray treatment; OP-resistant in Example 10). The note with it: application rate 100 g/ha, after 5 days, bean leaf discs. Put shortly:
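Bean leaf discs (Phaseolus vulgaris) infested with all stages of Tetranychus urticae sprayed with compound diluted in emulsifier-containing water. In the standard test, % kill scored after 5 days. The OP-resistant strain test uses the same method with scoring after a set period; 100% = all mites dead, 0% = none.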

Assay [4] concerns Echinocloa crus-galli. Put plainly: Herbicidal post-emergence action, ECHCG. To be noted: 20 g/ha. In outline:
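Weeds sown in sandy loam, grown in greenhouse 2–3 weeks and treated post-emergence at one-leaf stage (or BBCH 10–13, 5–10 cm) with WP/EC formulations sprayed at various dosages (600–800 l/ha water, 0.1–0.2% wetting agent). Visual rating after about 3 weeks as % activity versus untreated (100% = dead).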

Assay [5] concerns Setaria viridis. Briefly: Herbicidal pre-emergence action, SETVI. The note with it: 20 g/ha. From the text: 1. Herbicidal Pre-Emergence Action
• Seeds of monocotyledonous and dicotyledonous weed plants and crop plants are placed in wood-fiber pots in sandy loam and covered with soil. The test compounds, formulated in the form of wettable powders (WP), are then, as an aqueous suspension with a water application rate of 600 l/ha (converted), with 0.2% of wetting agent added, applied at various dosages to the surface of the covering soil. • After the treatment, the pots are placed in a greenhouse and kept under good growth conditions for the test plants. The visual assessment of the damage to the test plants is carried out after a trial period of about 3 weeks by comparison with untreated controls (herbicidal activity in percent: 100% activity=the plants have died, 0% activity=like control plants). • In addition to the compounds mentioned above, the following compounds show an activity of 90-100% against Alopecurus myosuroides, Digitaria sanguinalis, Echinocloa crus-galli, Lolium multiflorum, Setaria viridis and Sorghum halapense when applied by the pre-emergence method at 320 g/ha of a.i.: I-a-2, I-a-10, I-a-11, I-a-12.
1. Herbicidal Pre-Emergence Action (Pre)
• Seeds of monocotyledonous and dicotyledonous weed plants and crop plants are placed in wood-fiber pots in sandy loam and covered with soil. The test compounds, formulated in the form of wettable powders (WP) or emulsion concentrates (EC), are then, as an aqueous suspension with a water application rate of 600-800 l/ha (converted), with 0.1-0.2% of wetting agent added, applied at various dosages to the surface of the covering soil. • After the treatment, the pots are placed in a greenhouse and kept under good growth conditions for the test plants. […] Herbicidal Post-Emergence Action (Post) • Seeds of monocotyledonous and dicotyledonous weed and crop plants are placed in sandy loam in wood-fiber pots, covered with soil and cultivated in a greenhouse under good growth conditions. 2-3 weeks (stages 10-13 according to the BBCH scale) after sowing, the test plants are treated at a height of 5-10 cm. The test compounds, formulated as wettable powders (WP) or emulsion concentrates (EC), are then, with a water application rate of 600-800 l/ha (converted), with 0.1-0.2% of wetting agent added, sprayed at various dosages onto the green parts of the plants.
AVEFA: Avena fatua LOLMU: Lolium multiflorum SETVI: Setaria viridis CHEAL: Chenopodium album VIOTR: Viola tricolor VERPE: Veronica persica ORYSA: Oryza sativa TRZAS: Triticum aestivum ZEAMX: Zea mays ALOMY: Alopecurus myosuroides DIGSA: Digitaria sanguinalis ECHCG: Echinocloa crus-galli SORHA: Sorghum halepense AVESA: Avena sativa AMARE: Amaranthus retroflexus SINAL: Sinapis alba STEME: Stellaria media

With `CCOC(=O)OC1=C(c2c(C)cc(I)cc2CC)C(=O)C2(CCC(OC)CC2)N1` (mixture of isomers) [I-b-2], the “% Activity MYZUPE tau” value in assay [1] is reported as 90%. Further, the “effect in % (aphids killed)” value in assay [2] was 100%. Besides, in assay [3], the “effect in % (spider mites killed)” value amounted to 80%. For the same compound, in assay [4], the “% Activity ECHCG” value came out at 70%. Besides, in assay [5], the “% Activity SETVI” value amounted to 70%.
